Experimental data: EP4778922A1, “BICYCLIC COMPOUND, AND PREPARATION METHOD THEREFOR AND PHARMACEUTICAL USE THEREOF” (Shanghai Jeyou Pharmaceutical Co., Ltd., priority 2023, dated 2025)

Columns and labels:
22RV1 cells = test: Cell proliferation inhibition assay in 22RV1 cells (CellTiter-Glo, 7 days); format: cell-based, human; details: Homo sapiens
Procedure, shortened: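 LNCaP and 22RV1 human prostate cancer cells, 3000 per well, exposed to graded compound for 7 days at 37°C, 5% CO2; LNCaP got 0.2 nM DHT 1 h after compound. Viability by CellTiter-Glo luminescence; IC50 from four-parameter variable-slope fit.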

LNCaP cells = test: Cell proliferation inhibition assay in LNCaP cells (0.2 nM DHT, CellTiter-Glo, 7 days); format: cell-based, human; details: Homo sapiens, 168 h
Method: • 1. The human prostate cancer cell lines 22RV1 and LNCaP were purchased from ATCC. […] The cell concentration was adjusted to an appropriate concentration (determined based on the results of cell density optimization experiments), and the cells were seeded into a 96-well plate. A 100 µL cell suspension was added, resulting in 3000 cells per well. […] On the second day, for 22Rv1 cells, test compounds at different concentrations were added, and the cells were incubated at 37°C in a 5% CO2 incubator for 7 days; for LNCaP cells, test compounds at different concentrations were added first, and after 1 hour of treatment, 0.2 nM DHT was added. The cells were then incubated at 37°C in a 5% CO2 incubator for 7 days. • 4. After the incubation period, a volume of CellTiter-Glo detection reagent equal to the volume of the culture medium was added to each well. The plate was shaken and mixed thoroughly for 5 minutes, then incubated at room temperature for 10 minutes. Readings were taken using a PerkinElmer EnVision microplate reader. • 5.
The IC50 curve was fitted and the IC50 value was calculated using the software GraphPad Prism 8 with the calculation formula XY-analysis/Nonlinear regression (curve fit)/Dose response-Inhibition/log (inhibitor) vs. response-Variable slope (four parameters).

[1] = Mouse pharmacokinetic test; format: in vivo, ICR mice; details: plasma, po, 30 mg/kg, PO-30mpk; for Tmax: read-out: Tmax
Procedure, shortened: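 Male naive ICR mice (25–30 g, n=3 per route) received a single intravenous or oral dose, with feeding resumed 4 h post-dose. Blood was centrifuged at 4°C, and plasma was stored at -80°C until analysis.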

IC50 (22RV1 cells; 168 h) [nM]	IC50 (LNCaP cells) [nM]	SMILES	other results
		CC(C)(c1ccc(-c2ccc(OCc3ccnc(N=S4(=O)CCOCC4)n3)cn2)cc1)c1cc(Cl)c(OCCCl)c(C#N)c1 [Compound 62]	IC50 (22RV1 cells; 22Rv1, 168 h): 260 nM; IC50 (LNCaP cells; LNCaP): 830 nM; AUC(0-inf) [1]: 188 µg·h/mL; Cmax [1]: 19900 ng/mL; half-life [1]: 2 h; Tmax [1]: 2 h
		Cc1cc(OCc2ccnc(P(C)(C)=O)n2)ccc1-c1ccc(C(C)(C)c2cc(Cl)c(OCCCl)c(C#N)c2)cc1 [Compound 119]	IC50 (22RV1 cells; 22Rv1, 168 h): 740 nM; IC50 (LNCaP cells; LNCaP): 940 nM; AUC(0-inf) [1]: 333 µg·h/mL; Cmax [1]: 17400 ng/mL; half-life [1]: 11.8 h; Tmax [1]: 4.7 h
		CC(C)(c1ccc(-c2cnc(OCc3ccnc(N=S4(=O)CCOCC4)n3)cn2)cc1)c1cc(Cl)c(OCCCl)c(C#N)c1 [Compound 206]	IC50 (22RV1 cells; 22Rv1, 168 h): 410 nM; IC50 (LNCaP cells; LNCaP): 980 nM; AUC(0-inf) [1]: 236 µg·h/mL; Cmax [1]: 32100 ng/mL; half-life [1]: 1.7 h; Tmax [1]: 2 h
		CC(C)(c1ccc(-c2ccc(/C=C/c3cnc(P(C)(C)=O)nc3)cc2)cc1)c1cc(Cl)c(OCCCl)c(C#N)c1 [Compound 234]	IC50 (22RV1 cells; 22Rv1, 168 h): 350 nM; IC50 (LNCaP cells; LNCaP): 580 nM; AUC(0-inf) [1]: 307 µg·h/mL; Cmax [1]: 13400 ng/mL; half-life [1]: 11 h; Tmax [1]: 7 h
320	680	CC(C)(c1ccc(-c2ccc(OCC3CCC(CN4CC5(COC5)C4)CC3)cc2)cc1)c1cc(Cl)c(OCCCl)c(C#N)c1 (stereo not shown) [Compound 333]	
860	500	CC(C)(c1ccc(-c2cnc(OCc3ccnc(N4CC(S(C)(=O)=O)C4)n3)nc2)cc1)c1cc(Cl)c(OCCCl)c(C#N)c1 [Compound 342]	
790	410	CC(C)(c1ccc(-c2ccc(OCc3ccnc(N4CC(S(=N)(=O)C5CC5)C4)n3)nc2)cc1)c1cc(Cl)c(OCCCl)c(C#N)c1 (stereo not shown) [Compound 356]	
		CC(C)(c1ccc(-c2ccc(OCc3ccnc(N4CC(S(C)(=N)=O)C4)n3)nc2)cc1)c1cc(Cl)c(OCCCl)c(C#N)c1 (stereo not shown) [Compound 357]	IC50 (22RV1 cells; 22Rv1, 168 h): 830 nM; IC50 (LNCaP cells; LNCaP): 440 nM
570	240	CC(C)(c1ccc(-c2ccc(OCc3nccnc3P(C)(C)=O)cc2)cc1)c1cc(Cl)c(OCCCl)c(C#N)c1 [Compound 358]	
230	74	CC(C)(c1ccc(-c2ccc(OCc3ccc(-c4ccc(P(C)(C)=O)nc4)cc3)cc2)cc1)c1cc(Cl)c(OCCCl)c(C#N)c1 [Compound 359]	
250	400	CC(C)(c1ccc(-c2cnc(OCc3ccc(-c4cnc(P(C)(C)=O)nc4)cc3)cn2)cc1)c1cc(Cl)c(OCCCl)c(C#N)c1 [Compound 361]	
930	550	CC1(CO)CN(c2nccc(COc3cnc(-c4ccc(C(C)(C)c5cc(Cl)c(OCCCl)c(C#N)c5)cc4)cn3)n2)C1 [Compound 365]	
640	250	CC(C)(c1ccc(-c2cnc(OCc3ccc(-c4cnc(P(C)(C)=O)nc4)nc3)cn2)cc1)c1cc(Cl)c(OCCCl)c(C#N)c1 [Compound 373]	
380	100	CC(C)(c1ccc(-c2cnc(OCc3ccnc(N4CC5(CCS(=N)(=O)CC5)C4)n3)cn2)cc1)c1cc(Cl)c(OCCCl)c(C#N)c1 [Compound 377]	
860	410	CC(C)(c1ccc(-c2ccc(OCc3ccc(-c4cnc(N5CC(S(C)(=O)=O)C5)nc4)cc3)c(C#N)c2)cc1)c1cc(Cl)c(OCCCl)c(C#N)c1 [Compound 382]	
570	220	CC(C)(c1ccc(-c2cnc(COc3ccnc(P(C)(C)=O)n3)nc2)cc1)c1cc(Cl)c(OCCCl)c(C#N)c1 [Compound 385]	
370	530	CC(C)(c1ccc(-c2cnc(OCc3ccnc(N4CC(N=S(C)(C)=O)C4)n3)cn2)cc1)c1cc(Cl)c(OCCCl)c(C#N)c1 [Compound 388]	
110	76	CC(C)(c1ccc(-c2ccc(OCc3ccc(-c4ccc(P(C)(C)=O)nn4)cc3)cc2)cc1)c1cc(Cl)c(OCCCl)c(C#N)c1 [Compound 394]	
950	110	CC(C)(c1ccc(-c2ccc(OCc3ccc(-c4cnc(P(C)(C)=O)nc4)cn3)nc2)cc1)c1cc(Cl)c(OCCCl)c(C#N)c1 [Compound 397]	
510	120	CC(C)(c1ccc(-c2ccc(OCc3ccc(-c4cnc(P(C)(C)=O)nc4)nc3)nc2)cc1)c1cc(Cl)c(OCCCl)c(C#N)c1 [Compound 398]	

IC50 (22RV1 cells; 168 h) [nM]	IC50 (LNCaP cells) [nM]	SMILES	other results
660	99	CC(C)(c1ccc(-c2cnc(OCc3cnc(-c4cnc(P(C)(C)=O)nc4)cn3)nc2)cc1)c1cc(Cl)c(OCCCl)c(C#N)c1 [Compound 402]	
880	27000	CC(C)(c1ccc(-c2ccc(OCc3cnc(-c4cnc(P(C)(C)=O)nc4)cn3)nc2)cc1)c1cc(Cl)c(OCCCl)c(C#N)c1 [Compound 410]	
940	360	CN=S(C)(=O)C1CN(c2nccc(COc3ccc(-c4ccc(C(C)(C)c5cc(Cl)c(OCCCl)c(C#N)c5)cc4)nc3)n2)C1 (stereo not shown) [Compound 414]	
130	130	CC(C)(c1ccc(-c2ccc(OCc3ccc(-c4cnc(P(C)(C)=O)cn4)cc3)cc2)cc1)c1cc(Cl)c(OCCCl)c(C#N)c1 [Compound 419]	
350	600	CC(C)(c1ccc(-c2cnc(OCC34CC(c5cnc(P(C)(C)=O)nc5)(C3)C4)nc2)cc1)c1cc(Cl)c(OCCCl)c(C#N)c1 [Compound 421]	
690	530	CC(C)(c1ccc(-c2ccc(OCc3ccnc(N4CC5(C4)CS(=N)(=O)C5)n3)cn2)cc1)c1cc(Cl)c(OCCCl)c(C#N)c1 [Compound 422]	
660	310	CC(C)(c1ccc(-c2ncc(OCc3ccc(-c4cnc(P(C)(C)=O)cn4)cc3)cn2)cc1)c1cc(Cl)c(OCCCl)c(C#N)c1 [Compound 424]	
840	660	CC(C)(c1ccc(-c2cnc(COc3ccnc(P(C)(C)=O)n3)cn2)cc1)c1cc(Cl)c(OCCCl)c(C#N)c1 [Compound 432]	
180	650	CC(C)(c1ccc(-c2ccc(OCc3ccnc(N=S4(=O)CCN(CC(O)c5ccccc5)CC4)n3)cc2)cc1)c1cc(Cl)c(OCCCl)c(C#N)c1 (stereo not shown) [Compound 435]	
990	570	CC(=O)c1nccc(COc2ccc(-c3ccc(C(C)(C)c4cc(Cl)c(OCCCl)c(C#N)c4)cc3)cc2)n1 [Compound 440]	
380	160	CC(C)(c1ccc(-c2ccc3cc(OCc4ccnc(P(C)(C)=O)n4)ccc3c2)cc1)c1cc(Cl)c(OCCCl)c(C#N)c1 [Compound 442]	
120	130	CC(C)(c1ccc(-c2cnc(OCc3ccnc(N4CCC5(CC4)CS(=N)(=O)C5)n3)cn2)cc1)c1cc(Cl)c(OCCCl)c(C#N)c1 [Compound 444]	
130	80	CC(C)(c1ccc(-c2ccc(OCC34CC(c5cnc(P(C)(C)=O)nc5)(C3)C4)nc2)cc1)c1cc(Cl)c(OCCCl)c(C#N)c1 [Compound 445]	
310	140	CC(C)(c1cnc(-c2ccc(OCc3ccnc(N4CC(S(C)(=O)=O)C4)n3)cc2)nc1)c1cc(Cl)c(OCCCl)c(C#N)c1 [Compound 446]	
160	42	CNS(=O)(=O)C1CN(c2nccc(COc3cnc(-c4ccc(C(C)(C)c5cc(Cl)c(OCCCl)c(C#N)c5)cc4)cn3)n2)C1 [Compound 462]	
88	93	CC(C)(c1ccc(-c2ccc(OCc3ccnc(N4C5CCC4CC(S(C)(=O)=O)C5)n3)cc2)cc1)c1cc(Cl)c(OCCCl)c(C#N)c1 (stereo not shown) [Compound 463]	
950	430	CC(C)(c1cc(Cl)c(OCCCl)c(C#N)c1)c1ccc(-c2ccc(OCc3ccnc(N4CC(S(C)(=O)=O)C4)n3)cn2)cn1 [Compound 471]	
170	44	CC(C)(c1cc(Cl)c(OCCCl)c(C#N)c1)c1ccc(-c2ccc(OCc3ccnc(N4CC(S(C)(=O)=O)C4)n3)cc2)cn1 [Compound 476]	
690	240	CC(C)(c1cc(Cl)c(OCCCl)c(C#N)c1)c1ccc(-c2ccc(OCc3ccnc(N4CC(S(C)(=N)=O)C4)n3)cc2)cn1 (stereo not shown) [Compound 477]	
